Earlier results as cited in paper PMC8602434 (Drugs in R&D, 2021).

How the values were obtained:
[1] = sc administration; cited from earlier work
[2] = sc, dose of 33 µmol/kg; cited from earlier work
MC1R = conditions: read-out: half maximal effective concentration (EC50); cited from earlier work

## bremelanotide
[1]
  tmax: 0.5 to 1.0 h
  t½: 1.9 to 2.7 h

## CCCC(=O)C1(c2ccccc2)CCN(C(=O)[C@@H](Cc2ccc(OC)cc2)NC(=O)[C@@H](N)Cc2cncn2C)CC1 [BMS-470539]
[2]
  Cmax: 11 µM

## α-melanocyte-stimulating hormone [α-MSH]
MC1R
  EC50: 0.22 nM
